Structures are written as SMILES. pEC50: −log10 of the molar value.

Holding throughout (format): cell-based
Data set [1] concerns HIV-1 latently infected U1 cells. Kind of data set: HIV-1 latency reversal, p24 antigen in supernatant, U1 cells. As to conditions: Human immunodeficiency virus 1, 48 h. The protocol: (§1) The reactivation of HIV-1 from latently infected cells was determined by intracellular p24 protein expression and quantification of p24 antigen in the supernatant (ACH-2 and U1 cells), or by changes in intracellular green fluorescent protein (GFP) expression (J-Lat 10.6 cells). J-Lat ([Jordan et al., 2003]), ACH-2, or U1 cells (5 × 10^5 cells/ml) were seeded in 96-well plates and incubated with different drug concentrations for 24 h to collect the cells. The supernatant was collected after 48 h. The increase in supernatant p24 antigen levels was measured using a Lumipulse G1200 (FUJIREBIO, Tokyo, Japan). J-Lat cells (5 × 10^5 cells/ml) were placed in 48-well plates and incubated with different drug concentrations for 24 h. Intracellular p24 protein expression and GFP-positive cells were analyzed by flow cytometry.

The nature of data set [2]: Cytotoxicity of LRAs in A3.01 cells. As to conditions: human, day 7. The protocol:
(§2) To determine the cytotoxicity of LRAs, A3.01, and U937 cells (5 × 10^5 cells/ml), which are the parental cells for ACH-2 and U1 cells, respectively, were cultured in the presence or absence of LRAs. After 7 days, cell viability was examined using the Cell Counting Kit-8 assay (Dojindo, Kumamoto, Japan) according to the manufacturer’s instructions. The numbers of living cells after drug treatment were measured and compared to those in untreated cells and are presented as a percentage relative to the control.

In another data set the test system is U937 cells. Put plainly: Active caspase-3 by flow cytometry in U937 cells. As to conditions: 10 μM, 24 h.
The subject of data set [3] is PBMCs from healthy donors. Put plainly: Acute cytotoxicity in primary cells (fixable viability dye, flow cytometry).
Experimental: For T cell activation and exhaustion marker staining, PBMCs from healthy donors separated by the above density gradient centrifugation method were incubated with fixable viability stain Ghost Dye 780 (TONBO Biosciences) for 30 min on ice. […] Next, the cells were analyzed using BD FACSVerse (BD Biosciences). In the analysis, unstained cells were used as a negative control to set the gating for each experiment. The collected data were analyzed using FlowJo software (Tree Star, San Carlos, CA, United States).
The ratio of living cells was calculated for fixable viability dye negative cell populations by flow cytometry. Data are shown as means ± SDs of three independent experiments.
The test system of data set [4] is HIV-1 in CD4+ T cells from HIV-1-infected individuals. Kind of data set: Ex vivo reactivation, intracellular HIV-1 mRNA in primary CD4+ T cells from HIV-1-infected individuals. Conditions: 10 μM YSE028, 24 h, seven individuals. The protocol:
Primary cells were isolated from seven HIV-1^+ individuals, and ex vivo reactivation experiments were conducted as previously described ([Matsuda et al., 2019]). In brief, peripheral blood samples were collected from HIV-1-infected participants receiving cART for at least 5 years (Table 1). All subjects maintained a low viral load (<20 copies/ml, except for occasional “blips”) during therapy. CD4^+ T cell counts in peripheral blood samples ranged from 477 to 992 cells/mm^3 (average: 631 cells/mm^3), and plasma viral loads were <20 copies/ml (except for one participant whose viral load was 22 copies/ml) as measured by quantitative PCR (qPCR; COBAS AmpliPrep/COBAS TaqMan HIV-1 Test version 2.0; Roche Diagnostics, Basel, Switzerland) at the time of study enrollment. The Ethics Committee at the National Center for Global Health and Medicine approved this study (NCGM-G-002259-00), and each patient provided written informed consent. […] The number of HIV-1 RNA copies was calculated using a standard curve obtained from serially diluted HIV-1pNL4-3 plasmid, and normalized values [HIV-1 RNA copies/input RNA (ng)] for each drug were compared to those without drug treatment. The relative increase in HIV-1 RNA levels in the presence of each drug or combination was then determined.

The subject of data set [5] is HIV-1 latently infected U1 cells. Put plainly: Intracellular HIV-1 p24 by flow cytometry in U1 cells. As to conditions: 24 h. The method, then: as §1
(§3) The amount of intracellular HIV-1 p24 and the active form of caspase-3 were determined by flow cytometry, as previously described ([Matsuda et al., 2015], [2019]). In brief, ACH-2 and U1 cells (2.5 × 10^5 cells/ml) were fixed with 1% paraformaldehyde/PBS for 20 min and permeabilized with Flow Cytometry Perm Buffer (TONBO Biosciences, San Diego, CA, United States). After 5 min of incubation at room temperature, the cells were stained with FITC anti-HIV-1 p24 (24-4) monoclonal antibody (mAb; Santa Cruz Biotechnology, Dallas, TX, United States) or Alexa Fluor 647-conjugated anti-active caspase-3 (C92-605) mAb (BD Pharmingen, San Diego, CA, United States) for 30 min on ice. For T cell activation and exhaustion marker staining, PBMCs from healthy donors separated by the above density gradient centrifugation method were incubated with fixable viability stain Ghost Dye 780 (TONBO Biosciences) for 30 min on ice. The cells were then stained with Brilliant Violet 510 anti-human CD3 (UCHT1) mAb (BioLegend), FITC anti-human CD4 (RPA-T4) mAb (TONBO Biosciences), PE-Cy7 anti-human CD8a (RPA-T8) mAb (TONBO Biosciences), PerCP-Cy5.5 anti-human CD38 (HB-7) mAb (BioLegend), PE anti-human CD69 (FN50) mAb (BioLegend), or Alexa Fluor 647 anti-human CD279/PD-1 (EH12.1) mAb (BD Biosciences, San Jose, CA, United States) for 30 min on ice. Next, the cells were analyzed using BD FACSVerse (BD Biosciences). In the analysis, unstained cells were used as a negative control to set the gating for each experiment. The collected data were analyzed using FlowJo software (Tree Star, San Carlos, CA, United States).

A further data set concerns ACH-2 cells. Kind of data set: Active caspase-3 by flow cytometry in ACH-2 cells. As to conditions: 10 µM, 24 h. The method, then:
as §3, with “The cells were then stained with Brilliant Violet 510 anti-human CD3 (UCHT1) mAb (BioLegend), FITC anti-human CD4 (RPA-T4) mAb (TONBO Biosciences), PE-Cy7 anti-human CD8a (RPA-T8) mAb (TONBO Biosciences), PerCP-Cy5.5 anti-human CD38 (HB-7) mAb (BioLegend), PE anti-human CD69 (FN50) mAb (BioLegend), or Alexa Fluor 647 anti-human CD279/PD-1 (EH12.1) mAb (BD Biosciences, San Jose, CA, United States) for 30 min on ice.” left out, “In the analysis, unstained cells were used as a negative control to set the gating for each experiment.” left out
In general terms: A flow cytometer gives signals particle by particle.

Data set [6] can be described thus: Cytotoxicity of LRAs in U937 cells. Conditions: human, day 7. The method, then: as §2

Take `CCCC(CCC)C(=O)OCC1(CO)CC(=C(C)C)C(=O)O1` (centres unmarked) [YSE028]: the pEC50 (usually the negative decadic logarithm of the EC50, by convention in mol/L) in data set [1] was 5.74. For the same molecule, the CC50 at 7 days in data set [2] and in data set [6] was over 100 µM throughout. In addition, the caspase-3 activation was determined as 6.35% in the data set on U937 cells and 17.85% with ACH-2 cells. The “toxicity of LRAs in combination in primary cells” value in data set [3] (YSE028 10 μM with JQ1 1 μM, Supplementary Figure S3A) is on record as “did not cause increased toxicity in combination”. Besides, the “acute toxicity in primary cells” value in data set [3] (up to 100 μM, 24 h) is recorded as “did not show acute toxicity”. Further, the “HIV-1 mRNA compared to no drug control” value in data set [4] is on record as 1.66 fold. The entries for the “intracellular p24-positive live cells (flow cytometry quadrant)” value in data set [5] (0.1 µM), in data set [5] (1 µM) and in data set [5] (10 µM) were 0.239, 1.13 and 36.3, respectively.
